Common to all, as to format: in vivo
Test [1] deals with Seeds of Lettuce R. (Super-Jericho). Description: Filter paper bioassay with lettuce seeds: germination and early plant development, Minimal Effective Concentration (MEC). To be noted: lettuce seeds on filter paper, 0 to 1 mmol/l, visually assessed after 6 days. An outline of the steps:
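Non-sterilized Super-Jericho lettuce seeds, 10 per dish, on filter paper wetted with aqueous test solution at 0–1 mmol/l. Kept 48 h dark, then 4 days at 6/18 dark/light. MEC is the lowest concentration causing no germination or radicle/shoot malformation by visual scoring at day 6; at least two repeats.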

Test [2] shares this test system. Description: Filter paper bioassay with lettuce seeds: germination, Fully Effective Concentration (FEC). The conditions noted are these: lowest concentration mostly preventing lettuce seed germination, assessed after 6 days. From the text:
Materials: Seeds of Lettuce R. (Super-Jericho, non-sterilized) were obtained from Ben Shahar Moshe Ltd., 99% purity. The test compounds listed in the Table 2 below were synthetized de novo or purchased from different vendors.
Filter Paper Bioassays with Lettuce seeds: The protocol is following Bertin et al. 2009 and Movellan et al. 2014 with specified modifications as described below.
Seeds were placed on Whatman no. 1 filter paper (Whatman, Middlesex, U.K.) in Petri dishes (10 seeds per plate) with 2.0 ml of aqueous solution of a test material in concentration ranged from 0 (control) to 1 mmol/l were placed in a tray tilted at 45°. The trays were kept in dark for 48 hours and then transferred to the growth chamber with 6/18 dark/light cycle for 4 days. Each experiment was performed at least with two repeats.
The development of plants' radicle and shoots were visually assessed 6 days after the beginning of the test to determine Fully Effective Concentration (FEC) of a test material. In the context of the invention, FED is defined as the lowest concentration level of a test material that mostly preventing seeds germination.

For test [3], the system named is Romaine lettuce (Lactuca sativa L.) plants. Description: Post-emergence herbicidal activity on potted Romaine lettuce plants (soil or foliar application). The conditions noted are these: lettuce at 2 to 3 leaves, two weeks after treatment. The protocol: (§1) The tests were performed on Romaine lettuce (Lactuca sativa L.) plants at the stage 2 to 3 leaves. The plants were grown in mini-pots packed with soil, dimensions 2×2×5 cm, one plant per mini-pot. Test compounds were dissolved in 0.1% aqueous solution water solution of Silwet adjuvant to final concentrations ranging from 0 (Control) to 0.0001%. The test compounds were applied on soil (1 ml per pot) or foliar with airbrush (0.1 ml per pot). Each concentration was tested on 20 plants. Two weeks after the treatment the herbicidal effects of the respective test material were visually evaluated (aboveground part and roots. Then the aboveground part of the plants was neatly cut and weighed (wet weight) to assess the growth inhibition caused by the test compound. The growth inhibition (GI) was calculated as following: […]
Where Mt and Mc are median wet weight of treated and control plants, respectively. In the context of the invention, the herbicidal effect was assessed by concentration of the compound causing more than 85% of Growth Inhibition (GI) or irreversible damage of the plants (Table 3). Herbicidal activity of selected DHAAs is summarized in Table 4 (soil application) and Table 5 (Foliar application).

Test [4] has the same test system. Description: Comparison of NAA and DNAA: growth inhibition of potted Romaine lettuce plants. To be noted: two weeks after treatment. The protocol: as §1, with “adjuvant. The test material where applied in rate” for “adjuvant to final concentrations ranging from”, “(Control), 0.01, 0.05, and 0.5 mg/pot.” for “(Control) to 0.0001%.”, “soil” for “soil (1 ml per pot)”
Where Mt and Mc are median wet weight of treated and control plants, respectively.

[5] abbreviates: foliar application, 0.05 mg/pot.
[6] abbreviates: foliar application, 0.50 mg/pot.

“2-(2-chlorothiophen-3-yl)-2,2-difluoroacetic acid [compound 5623]”: the “Score (activity score of Minimal Effective Concentration, MEC)” value in test [1] is “Strong (0.01 mM)”. For the same compound, the “FEC (Fully Effective Concentration)” value in test [2] stood at 1.000 mM. Further, the “Score (test material causing more than 85% of Growth Inhibition or irreversible plant damage)” value in test [3] (foliar application) and in test [3] (soil application) was “strong (0.01 to 0.05)” each time. In addition, the “Herbicidal effect, growth application (%)” value (“Herbicidal effect … (%)” below) is reported as 91% in test [4] (setting [5]); 97% in test [4] (setting [6]); 34% in test [4] (soil application, 0.01 mg/pot); 79% in test [4] (soil application, 0.05 mg/pot); 98% in test [4] (soil application, 0.50 mg/pot).
Regarding “3-(2-chlorothiophen-3-yl)-3,3-difluoro-2-hydroxypropanenitrile [compound 5761]”, in test [1], the “Score (activity score of Minimal Effective Concentration, MEC)” value is given as “Strong (0.01 mM)”. Further, in test [2], the “FEC (Fully Effective Concentration)” value came out at 0.100 mM. Further, the “Score (test material causing more than 85% of Growth Inhibition or irreversible plant damage)” value in test [3] (soil application) is on record as “strong (0.01 to 0.05)”.
Take `NC(Cc1ccsc1Cl)C(=O)O` (centres unmarked) [compound 516]: the “Herbicidal effect … (%)” value worked out at 0% in test [4] (setting [5]); 0% in test [4] (setting [6]); 0% in test [4] (soil application, 0.01 mg/pot); 0% in test [4] (soil application, 0.05 mg/pot); 38% in test [4] (soil application, 0.50 mg/pot).
As to `NC(Cc1cc(Cl)sc1Cl)C(=O)O` (centres unmarked) [compound 517], the “Herbicidal effect … (%)” value in test [4] (setting [5]) was 0%; in test [4] (setting [6]), 29%; in test [4] (soil application, 0.01 mg/pot), 0%; in test [4] (soil application, 0.05 mg/pot) it was 25%; in test [4] (soil application, 0.50 mg/pot), 75%.
Regarding `NC(Cc1nc(Cl)sc1Cl)C(=O)O` (centres unmarked) [compound 527], the “Herbicidal effect … (%)” value in test [4] (setting [5]) stood at 0%; in test [4] (setting [6]), 44%; in test [4] (soil application, 0.01 mg/pot), 0%; in test [4] (soil application, 0.05 mg/pot), 11%; in test [4] (soil application, 0.50 mg/pot) it was 90%.
`NCCc1cc(Cl)sc1Cl` [compound 584, 2-(2,5-dichlorothiophen-3-yl) ethan-1-amine]: in test [1], the “Score (activity score of Minimal Effective Concentration, MEC)” value is reported as “moderate”. Besides, in test [2], the “FEC (Fully Effective Concentration)” value worked out at 0.500 mM. For the same compound, the “Score (test material causing more than 85% of Growth Inhibition or irreversible plant damage)” value in test [3] (soil application) was “weak (1.0)”.
Take `NC(Cc1ccnc(Br)c1)C(=O)O` (centres unmarked) [compound 632]: the “Herbicidal effect … (%)” value in test [4] (setting [5]) came out at 0%; in test [4] (setting [6]), 8%; in test [4] (soil application, 0.01 mg/pot), 0%; in test [4] (soil application, 0.05 mg/pot) it was 13%; in test [4] (soil application, 0.50 mg/pot), 21%.
As to `O=C(OCc1ccccc1)C(F)(F)c1cc(Cl)sc1Cl` [compound 5709, benzyl(2,5-dichlorothiophen-3-yl)(difluoro)acetate], in test [1], the “Score (activity score of Minimal Effective Concentration, MEC)” value is recorded as “very strong”. For the same compound, the “FEC (Fully Effective Concentration)” value in test [2] is 0.100 mM. Further, the “Score (test material causing more than 85% of Growth Inhibition or irreversible plant damage)” value in test [3] (foliar application) is listed as “moderate (0.5)”.
Turning to `O=C(O)C(F)(F)c1ccsc1C(F)(F)F` [compound 5728, difluoro[2-(trifluoromethyl)thiophen-3-yl]acetic acid], the “Score (activity score of Minimal Effective Concentration, MEC)” value in test [1] was “Strong (0.01 mM)”. Further, the “FEC (Fully Effective Concentration)” value in test [2] amounted to 1.000 mM. Further, the “Score (test material causing more than 85% of Growth Inhibition or irreversible plant damage)” value in test [3] (foliar application) and in test [3] (soil application) was “strong (0.01 to 0.05)” each time.
For the compound “(2-bromophenyl)methyl(2,5-dichlorothiophen-3-yl)(difluoro)acetate [compound 5747]”, the “Score (activity score of Minimal Effective Concentration, MEC)” value in test [1] was “very strong”. Moreover, in test [2], the “FEC (Fully Effective Concentration)” value stood at 0.500 mM. Moreover, the “Score (test material causing more than 85% of Growth Inhibition or irreversible plant damage)” value in test [3] (foliar application) and in test [3] (soil application) was “moderate (0.5)” in each case.
“(2-bromophenyl)methyl(2,5-dichlorothiophen-3-yl)(difluoro)acetate [compound 5772]”: in test [1], the “Score (activity score of Minimal Effective Concentration, MEC)” value is reported as “Strong (0.01 mM)”. In addition, the “FEC (Fully Effective Concentration)” value in test [2] was found to be 0.500 mM. Further, the entries for the “Score (test material causing more than 85% of Growth Inhibition or irreversible plant damage)” value in test [3] (foliar application) and in test [3] (soil application) were “moderate (0.5)” and “strong (0.01 to 0.05)”, respectively.
As to “(4-bromophenyl)methyl(2,5-dichlorothiophen-3-yl)(difluoro)acetate [compound 5768]”, the “Score (activity score of Minimal Effective Concentration, MEC)” value in test [1] is recorded as “Strong (0.01 mM)”. Besides, the “FEC (Fully Effective Concentration)” value in test [2] was 0.500 mM. The “Score (test material causing more than 85% of Growth Inhibition or irreversible plant damage)” value in test [3] (foliar application) is recorded as “strong (0.01 to 0.05)”; in test [3] (soil application) it was “moderate (0.5)”.
Regarding “(6-bromopyridin-2-yl)methyl2-(2,5-dichlorothiophen-3-yl)-2,2-difluoroacetate [compound 5757]”, the “Score (activity score of Minimal Effective Concentration, MEC)” value in test [1] was “Strong (0.01 mM)”. In test [2], the “FEC (Fully Effective Concentration)” value turned out to be 0.100 mM. In addition, in test [3] (soil application), the “Score (test material causing more than 85% of Growth Inhibition or irreversible plant damage)” value is on record as “strong (0.01 to 0.05)”.
“(6-bromopyridin-2-yl)methyl(2,5-dichlorothiophen-3-yl)acetate [compound 5759]”: in test [1], the “Score (activity score of Minimal Effective Concentration, MEC)” value is reported as “very strong”. In addition, in test [2], the “FEC (Fully Effective Concentration)” value was 0.010 mM. For the same compound, the “Score (test material causing more than 85% of Growth Inhibition or irreversible plant damage)” value in test [3] (foliar application) and in test [3] (soil application) was “strong (0.01 to 0.05)” in each case.
For “ethyl(2,5-dichloro-1,3-thiazol-4-yl)(difluoro)acetate [compound 5655]”, the “Score (activity score of Minimal Effective Concentration, MEC)” value in test [1] was “Strong (0.01 mM)”. The “FEC (Fully Effective Concentration)” value in test [2] worked out at 1.000 mM. In addition, the “Score (test material causing more than 85% of Growth Inhibition or irreversible plant damage)” value in test [3] (foliar application) and in test [3] (soil application) was “strong (0.01 to 0.05)” in each case.

For the origin of these results see patent US20240284907A1, “NOVEL DERIVATIVES OF NON-CODED AMINO ACIDS AND THEIR USE AS HERBICIDES” (FortePhest LTD., priority 2021, published 2024).
